# Data published in patent publication US20250332173A1, “COMPOUNDS AND METHODS FOR MODULATING NUCLEIC ACID SPLICING” (REMIX THERAPEUTICS INC., priority 2021, published 2025).
# Like-named read-outs stand apart in the source and are kept apart here.
# Experiments:
# Assay type in all cases: cell-based, human
# Target C = experiment: RT-qPCR splicing assay panel, Target C canonical junction (CJ) mRNA; details: Homo sapiens
# Description: (§1) The expression of a target mRNA was measured by detecting the formation of an exon-exon junction in the canonical transcript (CJ). A compound mediated exon-inclusion event was detected by observing an increase in formation of a new junction with an alternative exon (AJ). Real-time qPCR assays were used to detect these splicing switches and interrogate the potency of various compounds towards different target genes. A high-throughput real time quantitative PCR (RT-qPCR) assay was developed to measure these two isoforms of the mRNA (CJ and AJ) for exemplary genes, such as HTT, SMN2, and MYB, together with a control housekeeping gene, GAPDH or GUSB or PPIA, used for normalization. Briefly, the A673 or K562 cell line was treated with various compounds described herein (e.g., compounds of Formula (I)). After treatment, the levels of the HTT, MYB, or SMN2 mRNA targets were determined from each sample of cell lysate by cDNA synthesis followed by qPCR.
# (§2) The A673 cell line was cultured in DMEM with 10% FBS. Cells were diluted with full growth media and plated in a 96-well plate (15,000 cells in 100 ul media per well). The plate was incubated at 37° C. with 5% CO2 for 24 hours to allow cells to adhere. An 11-point 3-fold serial dilution of the compounds was made in DMSO then diluted in media in an intermediate plate. Compounds were transferred from the intermediate plate to the cell plate with the top dose at a final concentration of 10 uM in the well. Final DMSO concentration was kept at or below 0.25%. The cell plate was returned to the incubator at 37° C. with 5% CO2 for an additional 24 hours.
# (§3) The K562 cell line was cultured in IMDM with 10% FBS. For K562, cells were diluted with full growth media and plated in either a 96-well plate (50,000 cells in 50 uL media per well) or a 384-well plate (8,000-40,000 cells in 45 uL media per well). An 11-point 3-fold serial dilution of the compounds were made in DMSO then diluted in media in an intermediate plate. Compound was transferred from the intermediate plate to the cell plate with the top dose at a final concentration of 10 uM in the well. Final DMSO concentration was kept at or below 0.25%. Final volume was 100 uL for 96-well plate and 50 uL for 384-well plate. The cell plate was then placed in an incubator at 37° C. with 5% CO2 for 24 hours.
# (§4) The cells were then gently washed with 50 uL-100 uL cold PBS before proceeding to addition of lysis buffer. 30 uL-50 uL of room temperature lysis buffer with DNAse I (and optionally RNAsin) was added to each well. Cells were shaken/mixed thoroughly at room temperature for 5-10 minutes for lysis to take place and then 3 uL-5 uL of room temperature stop solution was added and wells were shaken/mixed again. After 2-5 minutes, the cell lysate plate was transferred to ice for RT-qPCR reaction setup. The lysates could also be frozen at −80° C. for later use.
# (§5) In some cases, a direct lysis buffer was used. An appropriate volume of 3× lysis buffer (10 mM Tris, 150 mM NaCl, 1.5%-2.5% Igepal and 0.1-1 U/uL RNAsin, pH 7.4) was directly added to either K562 or A673 cells in media and mixed by pipetting 3 times. The plates were then incubated at room temperature with shaking/rocking for 20-50 minutes to allow for lysis to take place. After this time, the cell lysate plate was transferred to ice to set up for the RT-qPCR reactions. The lysates could also be frozen at −80° C. for later use.
# (§6) To set up 10 uL RT-qPCR reactions, cell lysates were transferred to 384-well qPCR plates containing the master mix according to the table below. The plates were sealed, gently vortexed, and spun down before the run. The volumes were adjusted accordingly in some instances where the reaction was carried in 20 uL. The table below summarizes the components of the RT-qPCR reactions:
# (§7) The RT-qPCR reaction was performed using a QuantStudio (ThermoFisher) under the following fast cycling conditions.
# SMN2 mRNA = experiment: RT-qPCR splicing assay, SMN2 canonical junction (CJ) mRNA; details: Homo sapiens
# Description: as §1, §2, §3, §4, §5, §6, §7
# HTT mRNA = experiment: RT-qPCR splicing assay, HTT canonical junction (CJ) and alternative junction (AJ) mRNA; details: Homo sapiens; for AC50: increase in HTT alternative junction (AJ) mRNA, read-out: HTT AJ AC50
# Description: as §1
# (§8) • Cells-to-CT 1-step kit: ThermoFisher A25602, Cells-to-CT lysis reagent: ThermoFisher 4391851C, TaqMan™ Fast Virus 1-Step Master Mix: ThermoFisher 4444436 • GAPDH: VIC-PL, ThermoFisher 4326317E (Assay: Hs99999905_m1)—used for K562/suspension cell lines • GUSB: VIC-PL, ThermoFisher 4326320E (Assay: Hs99999908_m1)—used for K562/suspension cell lines • PPIA: VIC-PL, ThermoFisher 4326316E (Assay: Hs99999904_m1)—used for A673/adherent cell lines
# as §2, §3, §4, §5
# MYB mRNA = experiment: RT-qPCR splicing assay, MYB canonical junction (CJ) and alternative junction (AJ) mRNA; details: Homo sapiens; for AC50: increase in MYB alternative junction (AJ) mRNA, read-out: MYB AJ AC50
# Description: as §1, §8, §2, §3, §4, §5
# [1] = Table 5 panel, canonical junction qPCR, compound concentration having 50% response in CJ decrease, read-out: Target C IC50 (decrease in CJ mRNA levels)
# [2] = Table 5 panel, canonical junction qPCR, compound concentration having 50% response in CJ decrease, read-out: SMN2 IC50 (decrease in CJ mRNA levels)
# [3] = decrease in HTT canonical junction (CJ) mRNA, RT-qPCR, read-out: HTT CJ IC50
# [4] = Table 5 panel, canonical junction qPCR, compound concentration having 50% response in CJ decrease, read-out: HTT IC50 (decrease in CJ mRNA levels)
# [5] = Table 5 panel, canonical junction qPCR, compound concentration having 50% response in CJ decrease, read-out: MYB IC50 (decrease in CJ mRNA levels)
# [6] = decrease in MYB canonical junction (CJ) mRNA, RT-qPCR, read-out: MYB CJ IC50
IC50 (Target C; [1]) [nM],IC50 (SMN2 mRNA; [2]) [nM],IC50 (HTT mRNA; [3]) [nM],IC50 (HTT mRNA; [4]) [nM],IC50 (MYB mRNA; [5]) [nM],IC50 (MYB mRNA; [6]) [nM],"IC50 (Target C; canonical junction qPCR panel, Table 5, read-out: Target C (decrease in CJ mRNA levels, IC50)) [nM]","IC50 (SMN2 mRNA; canonical junction qPCR panel, Table 5, read-out: SMN2 (decrease in CJ mRNA levels, IC50)) [nM]","IC50 (HTT mRNA; canonical junction qPCR panel, Table 5, read-out: HTT (decrease in CJ mRNA levels, IC50)) [nM]","IC50 (MYB mRNA; canonical junction qPCR panel, Table 5, read-out: MYB (decrease in CJ mRNA levels, IC50)) [nM]",SMILES,AC50 (HTT mRNA; RT-qPCR) [nM],AC50 (MYB mRNA; RT-qPCR) [nM]
> 10000,> 10000,> 10000,> 10000,> 10000,> 10000,–,–,–,–,Cc1cn2cc(-c3ccc4nc(N5CCNC6(CC6)C5)[nH]c(=O)c4c3)cc(F)c2n1 [Compound 191],> 10000,> 10000
100 to 1000,100 to 1000,100 to 1000,100 to 1000,100 to 1000,100 to 1000,–,–,–,–,Cc1cn2nc(-c3ccc4nc(N5CCNC6(CC6)C5)[nH]c(=O)c4c3)cc(C)c2n1 [Compound 190],100 to 1000,100 to 1000
1000 to 10000,1000 to 10000,1000 to 10000,1000 to 10000,1000 to 10000,1000 to 10000,–,–,–,–,Cc1cn2nc(-c3ccc4c(c3)CCN(C3CCNC(C)C3)C4=O)cc(C)c2n1 (stereo not drawn) [Compound 327],1000 to 10000,1000 to 10000
> 10000,100 to 1000,> 10000,> 10000,> 10000,> 10000,–,–,–,–,"Cc1cn2cc(-c3cc(F)c4c(=O)n(C5CCNC6(CC6)C5)ccc4c3)cc(F)c2n1 (stereo not drawn) [Compound 471, 2-{4-azaspiro[2.5]octan-7-yl}-8-fluoro-6-{8-fluoro-2-methylimidazo[1,2-a]pyridin-6-yl}isoquinolin-1-one]",> 10000,> 10000
1000 to 10000,1000 to 10000,1000 to 10000,1000 to 10000,1000 to 10000,1000 to 10000,–,–,–,–,Cc1cc(-c2ccc3nc(N4CCNCC4)[nH]c(=O)c3c2)cc2cn(C)nc12 [Compound 166],1000 to 10000,1000 to 10000
–,–,100 to 1000,–,–,100 to 1000,1000 to 10000,< 100,100 to 1000,100 to 1000,Cn1cc2cc(-c3ccc4c(=O)n(C5CCNCC5)ccc4n3)c(O)c(C#N)c2n1 [Compound 1283],100 to 1000,100 to 1000
100 to 1000,< 100,< 100,< 100,< 100,< 100,–,–,–,–,Cc1cn2cc(-c3cc(F)c4c(=O)n([C@H]5CC[C@H](N(C)C)CC5)ccc4c3)cc(F)c2n1 [Compound 654],< 100,< 100
> 10000,> 10000,> 10000,> 10000,> 10000,> 10000,–,–,–,–,Cc1cn2cc(-c3ccc4nc(NC5CCNCC5)[nH]c(=O)c4c3)cc(F)c2n1 [Compound 238],> 10000,> 10000

SMILES,IC50 (Target C; [1]) [nM],IC50 (SMN2 mRNA; [2]) [nM],IC50 (HTT mRNA; [3]) [nM],IC50 (HTT mRNA; [4]) [nM],IC50 (MYB mRNA; [5]) [nM],IC50 (MYB mRNA; [6]) [nM],"IC50 (Target C; canonical junction qPCR panel, Table 5, read-out: Target C (decrease in CJ mRNA levels, IC50)) [nM]","IC50 (SMN2 mRNA; canonical junction qPCR panel, Table 5, read-out: SMN2 (decrease in CJ mRNA levels, IC50)) [nM]","IC50 (HTT mRNA; canonical junction qPCR panel, Table 5, read-out: HTT (decrease in CJ mRNA levels, IC50)) [nM]","IC50 (MYB mRNA; canonical junction qPCR panel, Table 5, read-out: MYB (decrease in CJ mRNA levels, IC50)) [nM]",AC50 (HTT mRNA; RT-qPCR) [nM],AC50 (MYB mRNA; RT-qPCR) [nM]
Cc1cc(-c2nc3ccc(N(C)C4CCN(C)CC4)cc3c(=O)[nH]2)cc2cn(C)nc12 [Compound 239],> 10000,1000 to 10000,> 10000,> 10000,> 10000,1000 to 10000,–,–,–,–,> 10000,> 10000
